From patent US20240366555A1, “SELECTIVE MTORC2 INHIBITOR AND USES THEREOF” (ALIAD BIOPHARMA, priority 2021, published 2024)

Columns and labels:
Arc protein expression = assay: mGluR-dependent Arc protein expression in cerebral neurons; format: cell-based
Method: When mGluR is activated in dendritic spines of cerebral neurons, Arc protein is synthesized, and the Arc protein promotes endocytosis of an AMPA receptor to form LTD.
Specifically, DHPG was treated to cerebral neurons, which were obtained by primary culture of white mouse embryo E16 cerebral regions and differentiated for […] (DIV21), for 5 minutes or 10 minutes to activate mGluR. As an Arc antibody, Arc protein (green) and PSD95 (red), which is a marker antibody of postsynaptic density of a synapse, were under
After double immunofluorescent staining of Arc protein with an Arc antidody (green) and PSD95, a marker of postsynaptic density of synapse, with an PSD95 antibody (red), Arc expression in dendritic spines was quantified as the number of Arc+PSD95 double stained puncta per 20 μm neurite length by confocal scanning microscopic scanning.

[1] = system: CYFIP1-overexpressing hippocampal neurons; assay: Excessive dendritic arborization in CYFIP1-overexpressing primary hippocampal neurons; format: cell-based, rat
From the text: Neural stem cells were primarily cultured from the hippocampal vestigial region of white mouse E16 embryos, and CYFIP1, which was found as a gene causing autism spectrum disorder, was introduced by transfection and overexpressed. When the neural stem cells in which CYFIP1 was overexpressed were differentiated, the neurite length and branch number increased compared to the normal cell, the number of dendritic spine increased, and morphological changes such as an increase in rod-shaped dendritic spines with a size of 0.6 μm or more, which are larger than the normal size, were accompanied. Therefore, CYFIP1 overexpression was used as a culture cell model of autism.
By treating norathyriol to the differentiating neural stem cells exogenously overexpressing CYFIP1, the effect of norathyriol on excessive dendritic arborization generated by CYFIP1 overexpression was investigated. By immunofluorescent staining method using an antibody against pan-neurofilament and an antibody against PSD (post-synaptic density)-95, which was expressed in the post-synaptic dendrite of synapses, the neurite length and dendritic spine number were measured and quantified. In addition, by DAPI staining, the nuclei of the neural cells were visualized.
Hippocampus-derived neural progenitor cells were isolated from the forebrain of E16 mouse embryos. SD-rat gestational age 16-day mice (Orient Bio) were purchased and the mice were anesthetized with CO2 deeply, and then the embryos were taken out. The embryos were immersed in Ca^2+/Mg^2+-free HBSS (Invitrogen) and the forebrain was isolated using a sterile injection needle under a dissecting microscope. While changing HBSS, the forebrain was separated into the left and right hemispheres using a forcep, and meninges were peeled off, and then the hippocampal eminence was separated. After washing the separated and collected tissue with cold N2 culture medium twice, 37° C. N2 culture medium was added and cells were slowly and mechanically isolated using a pipette. As the pipette, a Pasteur pipette coated with 1% BSA was used after making the pipette narrow and soft in diameter by firing the tip. After waiting for 3 minutes to allow undissolved tissue or vascular cells to settle, the supernatant was carefully taken as dissolved cells. These tissues were collected and mechanically isolated with the pipette in Ca^2+/Mg^2+-free HBSS (Invitrogen) buffer. The cells were seeded at 19,000 cells/cm^2 in a 35 mm culture dish coated with 15 μg/ml poly-L-ornithine and 1 μg/ml fibronectin (Sigma), and cultured using a serum-free N2 medium (medium for proliferation) in which 10 ng/mL bFGF (Invitrogen) was added under a condition of 5% CO2. […]

Pten KO mice [2] = assay: Y-type maze test in Pten KO mice; format: in vivo; settings: 5 or 10 mg/kg intraperitoneally for 14 days, FIG. 1a
Method: (§1) As Pten KO mice, Ptenf/f_cre/cre KO mice or Ptenf/f_cre/++ Het mice (KD) were obtained by mating Pten floxed/floxed mice and CAMKII-cre mice. DMSO or athyriol was intraperitoneally injected at 5 or 10 mg/kg for 2 weeks from the age of mice of 6 weeks, and a behavioral test was performed in 7 days after administration. Pten floxed/floxed mice were used as littermates of the same age as a normal control group.
A Y-maze was performed in a Y-shaped structure maze made of black acrylic material in which an angle of each arm was 120°, and a light and a cam were installed on the ceiling, and it was checked that white mice entered each arm while the surroundings were covered with a curtain. Through this, short-term memory was analyzed. In order to adapt mice to the environment, they were acclimated to the experimental space for 30 minutes. The mice were placed at one end of the maze and allowed to move freely for 12 minutes. Accuracy was measured by dividing time into 8 minutes, 10 minutes and 12 minutes. When the four paws of the mice entered the entrance, it was considered as completely entered. The percentage of accuracy was calculated as the number of times which a mouse entered each maze without repetition. The number of times entering each of three different arms was divided by the total number of times entering arms-2 and converted into a percentage for datafication. […]

Pten KO mice [3] = assay: 3-chamber test in Pten KO mice; format: in vivo
Method: as §1
3-chamber test is a test to confirm sociability, social cognition, and social sexual preference, and it was tested by composing sessions 1 and 2. The experimental site was consisted of three chambers made of transparent acrylic walls with a small door and each chamber was length 50 cm×width 100 cm×height 50 cm. Through a cylindrical cage, the sense of smell and minimal contact of the test mice to the unfamiliar mouse were allowed. Prior to the test, the test mice were placed in an intermediate chamber and adapted for 5 minutes with both doors closed. The test was performed by dividing into sessions I and II. In the 3-chamber sociability measurement-1 session, an unfamiliar mouse met first was placed in a transparent box located at one end of the three rooms, and an empty transparent box of the same size was placed in the room located at the other side, and the target mouse was placed in the middle room, and then the time searching toward the counterpart within the social interaction zone was measured.
In the 3-chamber sociability measurement-2 session, an unfamiliar met first was placed in a transparent box located at one end of the three rooms, and the mouse met in the session 1 was placed in the same transparent box in the room located at the other side. […] Therefore, it could be confirmed that the sociability disorder occurring in the Pten KO mice was improved to the normal group level by athyriol administration.

O=c1c2cc(O)c(O)cc2oc2cc(O)cc(O)c12 [norathyriol, 1,3,6,7-tetrahydroxy-9H-xanthen-9-one]
increase of Arc protein synthesis (immunoblot of cell lysate) (Arc protein expression; DHPG-induced, FIG. 12b): inhibited in a dose-dependent manner | Arc synthesis in dendritic spines (immunofluorescent staining) (Arc protein expression; pretreated for 2 hours before treating DHPG, FIG. 12a): the increase of Arc synthesis by DHPG was not found | reduction of number of dendritic spines per unit neurite length ([1]; 50 nM and 100 nM, on average, FIG. 10b): ≤ 50% | number of dendritic spines in primary branching neurites ([1]; FIG. 10b): reduced by norathyriol in a similar tendency | number of dendritic spines per cell ([1]; FIG. 10b): reduced by norathyriol in a similar tendency | number of dendritic spines per unit neurite length ([1]; from 10 nM, FIG. 10): decrease in the number of dendritic spines was observed

COc1cc(O)c2c(=O)c3cc(O)c(O)cc3oc2c1 [athyriol, 1,6,7-Trihydroxy-3-methoxy-9H-xanthen-9-on]
short-term memory in Y-type maze test (Pten KO mice [2]): recovered almost to the level of the normal control group | increase of time of searching the unfamiliar mouse over normal control group, session 2 (Pten KO mice [3]; 10 mg/kg, session 2): 14% | time searching the unfamiliar mouse, session 1 (Pten KO mice [3]; 3-chamber sociability measurement-1 session, FIG. 4): recovered to the normal control group level in a concentration-dependent manner | time of searching the unfamiliar mouse, session 2 (Pten KO mice [3]; 5 or 10 mg/kg, 3-chamber sociability measurement-2 session): increased in a dose-dependent manner
